Where two headings read alike, the source gives them in different places.
Experiments:
[1] = target: AMP-activated protein kinase (AMPK); test: AMPK kinase assay (luminescence, purified enzyme, ATP, substrate peptide); format: biochemical; details: AMPK activation
Method: In order to identify an effect of the Preparation Example 6 having the highest docking score in Experimental Example 1 on activity of the AMP-activated protein kinase (AMPK), a kinase assay was performed. The kinase assay was performed as follows. […] Then, purified AMP-activated protein kinase and ATP were allowed to react on a substrate peptide for the AMP-activated protein kinase, and degrees of luminescence thereof were shown as EC50 in Table 3 and FIG. 3.

[2] = test system: acetylcholine in brain tissues; test: Acetylcholine content in brain tissue; format: in vivo, ICR mice
Method: (§1) Subsequently, the syringe was allowed to stand for 5 minutes and then removed.
Measurement of acetylcholine in brain tissues was performed based on response of o-acyl derivatives with alkaline hydroxylamine. Specifically, 50 μl of brain tissue was taken and 50 μl of 1% hydroxylamine (Sigma, USA) was added and mixed. […] Finally, 500 μl of FeCl3 (10% in 0.1 N HCl) was added to measure an acetylcholine level (umole/mg protein), and then the absorbance was measured at 530 nm.

[3] = test system: acetylcholine hydrolase; format: in vivo; details: brain tissue
Method: as §1
Then, acetylcholine hydrolase activity was measured by the following method. To a microplate were continuously added 300 μl of 0.1 M Tris buffer, pH 8.0 (Trizma HCl±Trizmabase), 20 μl of 0.01 M dithionitrobenzoic acid (DTNB; Sigma, USA), 10 μl of brain tissue homogenate (enzyme suspension). Immediately before absorbance measurement, 10 μl of 0.1 M acetylthiocholine chloride (Sigma, USA) as a substrate was added thereto. An absorbance meter was used to observe absorbance changes at 405 nm for 5 minutes, so that acetylcholine hydrolase activity (unit/min/mg protein) was measured.

[4] = test system: Salmonella typhimurium TA98; test: Ames reverse mutation test, TA98
Method: For each strain, treatment with a single concentration of 200 μg/plate was performed in triplicate and mutation was checked.

[5] = test system: HFL-1; test: Cytotoxicity test (Cyto X cell viability assay kit), HFL-1; format: cell-based; details: Homo sapiens, HFL1
Method: (§2) In order to identify whether the Preparation Example 6 according to the present invention is toxic to cells, a cytotoxicity test was conducted at the Korea Research Institute of Chemical Technology using the Cyto X™ cell viability assay kit ([…]).

[6] = test system: amyloid-beta peptide1-42 degenerative neurological disease-induced mice; test: Probe test (Morris water maze, platform removed); format: in vivo, ICR mice; details: 90 seconds without platform
Method: In order to induce a degenerative neurological disease, the experimental animals of Preparatory Example 1 were anesthetized by inhalation with 2.5% isoflurane. Then, 1 μg of amyloid-beta peptide1-42, a degenerative neurological disease-inducing substance, was administered to the animals at both hippocampal positions (AP: −2.3, L: ±2.0, H: −1.5) using a stereotaxic apparatus. […] For the administration, 1 μl was injected, at a flow rate of 0.2 μl/min, with a […] gas-tight glass syringe (Hamilton, Reno, NV, USA) using a perfusion pump (Pump 22, Harvard Apparatus, South Natick, MA, USA). Subsequently, the syringe was allowed to stand for 5 minutes and then removed.
Then, a degenerative neurological disease was induced as in Preparation Example 2.
A circular pool (diameter: 120 cm, height: 75 cm) was filled with water to a depth of 25±1 cm as in FIG. 4, and a 24 cm platform was prepared by hiding it 1 cm below the water surface. Space cues were installed on the four sides of the wall so that the aminals can identify locations, and skimmed milk powder was dissolved into water so that the animals cannot identify the platform with naked eyes. One day before the experiment, all the experimental animals were allowed to swim freely for 1 minute in a water bath having no platform, so that the animals can adapt to the swimming situation. After that, a test group was allowed to start, in any order, from two of the three quadrants except the quadrant where the platform was placed, and allowed to find the platform for 60 seconds. In a case where an animal finds the platform, the animal was allowed to stay thereon for 20 seconds. […] As soon as end of the position learning time, which is the 20-second staying time, the animal was allowed to start again from any quadrant, and the time and distance to reach the platform were measured. The procedure was performed four times a day, and all procedures were taken with a camera and analyzed with a video tracking system (Panlab, USA). Probe trials were made on the fifth day after the four-day experiment in toal was completed. The test group was allowed to swim freely for 90 seconds without the platform, thereby performing evaluation on whether the test group holds a memory of the platform location. The results are illustrated in FIGS. 5 to 7.
The results are illustrated in FIGS. 8 and 9.

[7] = Lipophilicity (pKa, LogP); format: physicochemical; details: ACD/Labs T3 (pH-metrior)
Method: For a preliminary examination on clinical application of the Preparation Example 6, evaluation on lipophilicity and solubility was performed.

[8] = test system: VERO; test: Cytotoxicity test (Cyto X cell viability assay kit), VERO; format: cell-based; details: Chlorocebus sabaeus
Method: as §2

[9] = test system: L929; test: Cytotoxicity test (Cyto X cell viability assay kit), L929; format: cell-based; details: Mus musculus
Method: as §2

[10] = test system: Tunel positive cells in brain tissue; test: Apoptosis level in brain tissue by TUNEL assay; format: in vivo, ICR mice
Method: as §1
Then, an apoptosis level was checked through TUNEL assay. The TUNEL assay is a method to search for cells that have undergone apoptosis by attaching a fluorescent substance to ends of DNA fragments cleaved due to apoptosis. The extracted brain tissue of the experimental animal is fixed by perfusion with 4% formaldehyde. Then, the brain tissue was embedded in paraffin and sectioned to a thickness of 5 μm. The brain tissue fixed on a slide was subjected to a TUNEL assay kit so that the end portions where DNA having undergone apoptosis had been fragmented are fluorescence-stained, and checked by a fluorescence microscope.

With `COc1ccc(OC)c(/C=C/C(=O)c2ccc(NS(=O)(=O)c3ccc(Cl)cc3)cc2)c1` [Preparation Example 6, (E)-4-Chloro-N-(4-(3-(2,5-dimethoxyphenyl)acryloyl)phenyl)benzenesulfonamide] as the compound, how does the EC50 [1] read?
The EC50 was 0.637 µM.

What about the acetylcholine content ([2]; 1 mg, p<0.05) of the same compound?
Its acetylcholine content is 22.31±1.80 μmole/mg protein.

What about the acetylcholine content ([2]; 10 mg, p<0.01) of the same compound?
The acetylcholine content was 23.08±1.54 μmole/mg protein.

What about the acetylcholine content ([2]; 100 mg, p<0.01) of the same compound?
Its acetylcholine content is 22.79±1.45 μmole/mg protein.

What about the acetylcholine hydrolase activity ([3]; 10 mg) of the same compound?
Its acetylcholine hydrolase activity is 0.25±0.07 U/mg protein.

What about the acetylcholine hydrolase activity ([3]; 100 mg) of the same compound?
The acetylcholine hydrolase activity was 0.24±0.05 U/mg protein.

And the “Ames reverse mutation test outcome” value ([4]; TA98, 200 μg/plate, with or without S9)?
Its value is “negative”.

And the “Reverse mutation [factor] with S-9 mix” value ([4]; TA98, with S-9, factor versus control)?
The value was “[1.5]”.

And the “Reverse mutation/dish (mean ± SD) with S-9 mix” value ([4]; TA98, with S-9, Preparation Example 6 at 200 μg/plate, Benzo(a)pyrene concentration 2)?
The value was 35 ± 2.

What about the “Reverse mutation [factor] w/o S-9 mix” value ([4]; TA98, without S-9, factor versus control) of the same compound?
Its value is “[1.1]”.

And the “Reverse mutation/dish (mean ± SD) w/o S-9 mix” value ([4]; TA98, without S-9, Preparation Example 6 at 200 μg/plate, 2-Nitrofluorene concentration 2)?
Its value is 20 ± 4.

What about the IC50 [5] of the same compound?
Its IC50 is greater than 100 µM.

And the “swimming time in the target quadrant” value ([6]; 1 mg, p<0.05)?
Its value is 31.08 ± 6.33 s.

What about the “swimming time in the target quadrant” value ([6]; 10 mg, p<0.01) of the same compound?
Its value is 36.73 ± 7.78 s.

And the “swimming time in the target quadrant” value ([6]; 100 mg, p<0.01)?
Its value is 36.51 ± 6.55 s.

What about the logP [7] of the same compound?
The logP was 4.75.

And the IC50 [8]?
Its IC50 is 83.6 µM.

And the IC50 [9]?
The IC50 was greater than 100 µM.

What about the “number of Tunel positive cells” value ([10]; 1 mg, p<0.05) of the same compound?
The value was 88.83±18.98.

What about the “number of Tunel positive cells” value ([10]; 10 mg, p<0.01) of the same compound?
Its value is 69.5±17.87.

And the “number of Tunel positive cells” value ([10]; 100 mg, p<0.01)?
The value was 67.00±19.54.
